Experimental data as given in patent US8197860B2, “Method for enhancing nutrient absorption with astragalosides” (Nuliv Holding Inc., priority 2005, dated 2012).

Columns and labels:
Assay type in all cases: cell-based, human
Caco-2 cell monolayer [1] = test: Arginine absorption assay (transport across Caco-2 cell monolayer); design: key to * (regulatory effect on arginine transport): ↑: the arrows that point up represent the enhancing effect on the arginine transport; conditions: for Regulatory effects on the arginine transport across the Caco2 cell monolayer: Table 3 summary; for Transport rate (arginine): 10 mM L-arginine apical
Experimental: (§1) To evaluate the effect of the isolated astragaloside compound on the uptake of nutrient substances across the intestinal lumen, Caco-2 cells were grown on permeable filter as an experimental model. Caco2 cells originate from human colonic adenocarcinoma and spontaneously differentiate into an enterocyte-like phenotype after two weeks. The Caco-2 cell line, derived from a human colorectal carcinoma, has been used as an in vitro model system for studying drug absorption in gastrointestinal tract. These cells form monolayers with well-developed tight-junctions, and have been evaluated in details as an in vitro model to study both transcellular transport of nutrients and drugs in intestinal lumen.
(§2) Caco-2 cells were obtained from the ATCC (American Type Culture Collection). The cells were maintained in Dulbecco's modified Eagle medium (DMEM) containing 4.5 g/L glucose and 25 mM Hepes, supplemented with 10% fetal calf serum, 100 U/mL penicillin G and […]. The medium was changed every second day. The cells were routinely checked for Mycoplasma in monthly intervals. Caco-2 cells were cultured on semi-permeable membranes to differentiate into a highly functionalized epithelial barrier with remarkable morphological and biochemical similarity to the small intestinal columnar epithelium. The Caco-2 cell monolayers could therefore be used to study the membrane transport properties of many compounds. To trypsinize the cells, the culture dish was washed once with phosphate-buffered saline (PBS) followed by adding trypsine-EDTA for 10 minutes. The trypsinized cells were separated and filtered into single cells using a 35-μm strainer cap (Falcon 2235) before being seeded for further experiments.
(§3) In measuring transport of arginine across the Caco-2 cell monolayer, both sides of the transwells were washed with arginine incubation buffer consisting of: 137 mM NaCl, 10 mM Hepes, 0.3 mM NaH2PO4, 0.3 mM K2HPO4, 5.4 mM KCl, 2.8 mM CaCl2, 1 mM MgSO4, 10 mM glucose, adjusted to pH 7.4. Then, the cell layer was preincubated in the incubation buffer at 37° C. for 1 h. The volume of incubation buffer was 0.2 mL and 0.9 mL in the apical and basolateral chambers, respectively. The cells were replaced with fresh incubation medium in both chambers prior to the transport experiment. The transport experiment was initiated by replacing the incubation solution on the apical side with solution containing 10 mM of L-arginine in which 0.125 μCi/mL of L-[^3H]-arginine was included. At designated time intervals, 10 μL-solution samples were removed from the basolateral side and radioactivity of each sample was counted using a microplate liquid scintillation counter (TopCount, Packard NXT). During the experiment, when a 10 μL-solution sample was removed from the basolateral side every time, 10 μL buffer was supplemented to keep the volume constant. The uptake of [^3H]-mannitol was used to correct for nonspecific transport of molecules across the monolayer membrane. Results were expressed as the nanomoles of arginine transport across the Caco-2 cell monolayers with respect to time in minutes (nmol/min).

Caco-2 cell monolayer [2] = test: Tryptophan absorption assay (transport across Caco-2 cell monolayer); design: key to * (regulatory effect on tryptophan transport): ↑: the arrows that point up represent the enhancing effect on the tryptophan transport; conditions: for Regulatory effects on the tryptophan transport across the Caco2 cell monolayer: Table 4 summary; for Tryptophan transport rate: concentration from 0.01 μM to 1 mM
Experimental: as §1, §2, §3
The experimental procedures similar to those in Example 2 were used for measuring the uptake of tryptophan molecules across the Caco-2 membrane, except using a tryptophan incubation buffer consisting of 137 mM choline chloride, 10 mM Hepes, 0.6 mM KH2PO4, 5.4 mM KCl, 2.8 mM CaCl2, 1 mM MgSO4, and 10 mM glucose, and having its pH adjusted to 7.4. Results were expressed as the nanomoles of tryptophan transport across the Caco-2 cell monolayers with respect to time in minutes (nmol/min).

Caco2 cells = test: Folate uptake assay; design: key to * (regulatory effect on folate uptake): ↑: the arrows that point up represent the enhancing effect on folate uptake; conditions: compound 0.1 μM; for Uptake rate (folate): 2 days, 5 μM folate, pH 6.0
Experimental: as §1, §2
Caco-2 cells (5×10^4) were seeded in a 48-well plate and maintained in culture medium (DMEM with 10% FBS, 1% nonessential amino acids, L-glutamine, penicillin G (100 U/mL), streptomycin (10 μg/mL), and amphotericin B (2.5 μg/mL) in a 37° C. incubator for 10 days for the cells to differentiate. The culture medium was changed once every two days. The cells were then washed with PBS before replenishing with the culture medium containing 5% FBS and various astragalosides at the indicated concentrations (0.01, 0.1 and 1 μM) for 48 hours. The Caco2 cells were washed out of remaining glucose with PBS and replaced in the glucose buffer (80 mM NaCl, 100 mM mannitol, 20 mM Tris-HCl, pH 7.4, 3 mM K2HPO4, 1 mM CaCl2, 1 mg/mL BSA) for 1 hour. Glucose uptake was initiated by replacing the glucose buffer with 0.2 ml of glucose buffer containing 2 μCi/mL of ^14C-glucose and unlabeled cold glucose to give a final glucose concentration of 25 mM. Glucose uptake was stopped by removing the glucose buffer and washing with PBS at designated time intervals. The cells were lysed in 0.2 mL of 0.2 N NaOH, and 20 μL of the cell lysate were transferred to the filter-bottomed UniFilter plates (Perkin-Elmer, Wellesley, Mass., USA) and dried in a vacuum oven at 37° C. The bottom of the UniFilter plate was sealed and 25 μL of the counting solution were added into each well. Adhesive plate sealers were used in place of the lids and radioactivity of each sample was counted using the microplate liquid scintillation counter (TopCount, Packard NXT, Packard BioScience Company, Meriden, Conn., USA). The amount of glucose accumulated in the cells was calculated and normalized to protein concentration, and uptake rate was expressed as nanomoles of glucose per minutes per milligram of cell protein (nmol/min/mg). Protein concentration was determined by a standard Bicinchoninic acid (BCA) protein assay. Nonspecific glucose uptake was measured by adding 2 μCi of L-[^14C]-glucose and subtracting from each determination to obtain specific glucose uptake.
The Caco2 cells were subjected to folate uptake test in a manner similar to that described in the glucose uptake assay in Example 1 above. […]

[3] = concentration from 0.01 μM to 1 μM

Structure (SMILES)	Regulatory effects on the arginine transport across the Caco2 cell monolayer (Caco-2 cell monolayer [1])	* (regulatory effect on arginine transport) (Caco-2 cell monolayer [1]; compound 0.01 μM)	Percentage (arginine transport, control = 100) (Caco-2 cell monolayer [1]; compound 0.01 μM) [%]	Transport rate (arginine) (Caco-2 cell monolayer [1]; compound 0.01 μM) [nmol/min]	* (regulatory effect on arginine transport) (Caco-2 cell monolayer [1]; compound 0.1 μM)	Percentage (arginine transport, control = 100) (Caco-2 cell monolayer [1]; compound 0.1 μM) [%]	Transport rate (arginine) (Caco-2 cell monolayer [1]; compound 0.1 μM) [nmol/min]	* (regulatory effect on arginine transport) (Caco-2 cell monolayer [1]; compound 1 μM)	Percentage (arginine transport, control = 100) (Caco-2 cell monolayer [1]; compound 1 μM) [%]	Regulatory effects on the tryptophan transport across the Caco2 cell monolayer (Caco-2 cell monolayer [2])	* (regulatory effect on tryptophan transport) (Caco-2 cell monolayer [2]; compound 0.01 μM)	Percentage (tryptophan transport, control = 100) (Caco-2 cell monolayer [2]; compound 0.01 μM) [%]	Transport rate (tryptophan) (Caco-2 cell monolayer [2]; compound 0.01 μM) [nmol/min]	* (regulatory effect on tryptophan transport) (Caco-2 cell monolayer [2]; compound 0.1 μM)	Percentage (tryptophan transport, control = 100) (Caco-2 cell monolayer [2]; compound 0.1 μM) [%]	Transport rate (tryptophan) (Caco-2 cell monolayer [2]; compound 0.1 μM) [nmol/min]	Tryptophan transport rate (Caco-2 cell monolayer [2])	* (regulatory effect on folate uptake) (Caco2 cells)	Percentage (folate uptake vs own control) (Caco2 cells) [%]	Uptake rate (folate) (Caco2 cells) [pmol/mg/min]	also measured
CC(C)(O)[C@@H]1CC[C@](C)([C@H]2[C@@H](O)C[C@@]3(C)[C@@H]4C[C@H](O)[C@H]5C(C)(C)[C@@H](O[C@@H]6OC[C@@H](O)[C@H](O)[C@H]6O[C@@H]6O[C@H](CO)[C@@H](O)[C@H](O)[C@H]6O)CC[C@@]56C[C@@]46CC[C@]23C)O1 [AS3, astragaloside III]	had regulatory effects on the arginine transport	↑	121.74	13.0084 ± 1.0510	↑	124.33	13.2858 ± 1.4110	↑	148.18	had regulatory effects on the tryptophan transport	↑	159.81	14.290 ± 1.3910	↑	151.98	13.590 ± 1.0080	increased	↑	145.41	80.380 ± 6.2170	Transport rate (arginine) (Caco-2 cell monolayer [1]; compound 1 μM): 15.8341 ± 1.0000 nmol/min; Arginine transport rate (Caco-2 cell monolayer [1]; [3]): increased; * (regulatory effect on tryptophan transport) (Caco-2 cell monolayer [2]; compound 1 μM): ↑; Percentage (tryptophan transport, control = 100) (Caco-2 cell monolayer [2]; compound 1 μM): 270.63%; Transport rate (tryptophan) (Caco-2 cell monolayer [2]; compound 1 μM): 24.200 ± 1.0260 nmol/min
CC(=O)O[C@H]1[C@H](O[C@H]2CC[C@]34C[C@]35CC[C@]3(C)[C@@H]([C@@]6(C)CC[C@@H](C(C)(C)O)O6)[C@@H](O)C[C@@]3(C)[C@@H]5C[C@H](O[C@@H]3O[C@H](CO)[C@@H](O)[C@H](O)[C@H]3O)[C@H]4C2(C)C)OC[C@@H](O)[C@@H]1O [AS2, astragaloside II]	had regulatory effects on the arginine transport	↑	151.94	16.2358 ± 1.6190	↑	161.69	17.2771 ± 1.6170			had regulatory effects on the tryptophan transport	↑	115.07	10.290 ± 0.4115	↑	130.28	11.650 ± 0.5789	increased	↑	129.05	69.970 ± 3.7720	* (regulatory effect on arginine transport) (Caco-2 cell monolayer [1]; compound 0.001 μM): ↑; Percentage (arginine transport, control = 100) (Caco-2 cell monolayer [1]; compound 0.001 μM): 136.97%; Transport rate (arginine) (Caco-2 cell monolayer [1]; compound 0.001 μM): 14.6355 ± 1.2910 nmol/min; Arginine transport rate (Caco-2 cell monolayer [1]; concentration from 0.001 μM to 0.1 μM): increased
CC(=O)O[C@H]1[C@H](O[C@H]2CC[C@]34C[C@]35CC[C@]3(C)[C@@H]([C@@]6(C)CC[C@@H](C(C)(C)O)O6)[C@@H](O)C[C@@]3(C)[C@@H]5C[C@H](O[C@@H]3O[C@H](CO)[C@@H](O)[C@H](O)[C@H]3O)[C@H]4C2(C)C)OC[C@@H](OC(C)=O)[C@@H]1O [IsoAS1, isoastragaloside I]	had regulatory effects on the arginine transport	↑	135.49	14.4776 ± 0.5519	↑	199.44	21.3107 ± 1.5130	↑	135.41	had regulatory effects on the tryptophan transport	↑	115.97	10.370 ± 0.8808	↑	149.52	13.370 ± 0.3301	increased	↑	144.83	73.460 ± 3.6060	Transport rate (arginine) (Caco-2 cell monolayer [1]; compound 1 μM): 14.4734 ± 1.1350 nmol/min; Arginine transport rate (Caco-2 cell monolayer [1]; [3]): increased; * (regulatory effect on tryptophan transport) (Caco-2 cell monolayer [2]; compound 1 μM): ↑; Percentage (tryptophan transport, control = 100) (Caco-2 cell monolayer [2]; compound 1 μM): 118.54%; Transport rate (tryptophan) (Caco-2 cell monolayer [2]; compound 1 μM): 10.600 ± 0.8058 nmol/min
